The NIST ThermoML archive (doi:10.1016/j.jct.2018.08.005)

Assay: xn = mol fraction of the nth substance listed
Conditions: Liquid; for mass density: Vibrating tube method; for speed of sound: Frequency=3 MHz, Pulse-echo method

CCOC(F)(C(F)(F)C(F)(F)C(F)(F)F)C(F)(C(F)(F)F)C(F)(F)F (stereo not given) [2-trifluoromethyl-3-ethoxydodecafluorohexane] + CC(C)OC(C)C
Conditions | mass density, x1 = 0.25 [kg/m3] | mass density, x1 = 0.375 [kg/m3] | mass density, x1 = 0.5 [kg/m3] | mass density, x1 = 0.625 [kg/m3] | mass density, x1 = 0.75 [kg/m3] | speed of sound, x1 = 0.25 [m/s] | speed of sound, x1 = 0.375 [m/s] | speed of sound, x1 = 0.5 [m/s] | speed of sound, x1 = 0.625 [m/s] | speed of sound, x1 = 0.75 [m/s]
333.15 K, 100000 kPa | – | – | – | – | 1580.9 | – | – | – | – | –
333.15 K, 110000 kPa | 1138.5 | 1274.2 | 1393.9 | 1499.9 | 1591.8 | – | – | – | – | –
333.15 K, 120000 kPa | 1146.4 | 1282.9 | 1403.2 | 1509.7 | 1602.1 | – | – | – | – | –
333.15 K, 130000 kPa | 1153.9 | 1291.2 | 1412.1 | 1519.2 | 1611.9 | – | – | – | – | –
333.15 K, 140000 kPa | 1160.9 | 1299 | 1420.5 | 1528.1 | 1621.2 | – | – | – | – | –
343.15 K, 100 kPa | – | 1091.4 | 1197 | 1291.8 | 1376.3 | – | 588 | 563 | 550.5 | 540.2
343.15 K, 10000 kPa | 1000.6 | 1121.3 | 1229.2 | 1325.6 | 1411.1 | – | – | – | – | –
343.15 K, 20000 kPa | 1021.9 | 1145.1 | 1254.7 | 1352.4 | 1438.8 | 792.6 | 745.6 | 714 | 697.6 | 681.6
343.15 K, 30000 kPa | 1039.6 | 1164.8 | 1275.9 | 1374.8 | 1462 | – | – | – | – | –
343.15 K, 40000 kPa | 1055.2 | 1182.1 | 1294.4 | 1394.4 | 1482.3 | 911.7 | 858.7 | 822.8 | 803.3 | 783.8
343.15 K, 50000 kPa | 1068.8 | 1197.3 | 1310.8 | 1411.7 | 1500.3 | – | – | – | – | –
343.15 K, 60000 kPa | 1081.1 | 1210.9 | 1325.4 | 1427.3 | 1516.5 | 1007.3 | 949.5 | 911 | 889.2 | 867
343.15 K, 70000 kPa | 1092.4 | 1223.4 | 1338.9 | 1441.4 | 1531.3 | – | – | – | – | –
343.15 K, 80000 kPa | 1102.8 | 1234.9 | 1351.3 | 1454.6 | 1544.9 | 1089.6 | 1026.7 | 987 | 963.1 | 938.2
343.15 K, 90000 kPa | 1112.5 | 1245.7 | 1362.8 | 1466.8 | 1557.6 | – | – | – | – | –
343.15 K, 100000 kPa | 1121.5 | 1255.8 | 1373.5 | 1478.2 | 1569.5 | 1161.8 | 1095.1 | 1054.1 | 1028.7 | 1001.7
343.15 K, 110000 kPa | 1130.1 | 1265.3 | 1383.8 | 1489.1 | 1580.8 | – | – | – | – | –
343.15 K, 120000 kPa | 1138.2 | 1274.2 | 1393.3 | 1499.3 | 1591.4 | – | – | – | – | –
343.15 K, 130000 kPa | 1145.9 | 1282.7 | 1402.5 | 1509.1 | 1601.6 | – | – | – | – | –
343.15 K, 140000 kPa | 1153.3 | 1290.7 | 1411.2 | 1518.2 | 1611.2 | – | – | – | – | –
353.15 K, 100 kPa | – | – | – | 1271.2 | 1355.1 | – | – | – | – | 512.6
353.15 K, 10000 kPa | 986.5 | 1105.6 | 1212.9 | 1308.2 | 1393 | – | – | – | – | –
353.15 K, 20000 kPa | 1009.3 | 1131.2 | 1240.1 | 1337 | 1422.7 | 767.9 | 724.5 | 692.8 | 676.5 | 660.7
353.15 K, 30000 kPa | 1028.2 | 1152.3 | 1262.7 | 1360.8 | 1447.4 | – | – | – | – | –
353.15 K, 40000 kPa | 1044.4 | 1170.2 | 1281.9 | 1381.2 | 1468.5 | 889.5 | 841.4 | 804.5 | 785.2 | 765.7
353.15 K, 50000 kPa | 1058.7 | 1186 | 1298.8 | 1399.2 | 1487.3 | – | – | – | – | –
353.15 K, 60000 kPa | 1071.6 | 1200.3 | 1314.2 | 1415.5 | 1504.2 | 986.5 | 935.6 | 894 | 872.6 | 850.4
353.15 K, 70000 kPa | 1083.3 | 1213.3 | 1328.1 | 1430.3 | 1519.5 | – | – | – | – | –
353.15 K, 80000 kPa | 1094.2 | 1225.2 | 1340.9 | 1443.9 | 1533.7 | – | 1015.6 | 971 | 947.8 | 923.1
353.15 K, 90000 kPa | 1104.1 | 1236.2 | 1352.7 | 1456.5 | 1546.8 | – | – | – | – | –
353.15 K, 100000 kPa | 1113.4 | 1246.6 | 1363.8 | 1468.2 | 1559 | 1142.6 | – | 1039.1 | 1014.4 | 987.2
353.15 K, 110000 kPa | 1122.1 | 1256.3 | 1374.2 | 1479.2 | 1570.4 | – | – | – | – | –
353.15 K, 120000 kPa | 1130.4 | 1265.4 | 1384.1 | 1489.7 | 1581.4 | – | – | – | – | –
353.15 K, 130000 kPa | 1138.3 | 1274.2 | 1393.5 | 1499.7 | 1591.7 | – | – | – | – | –
353.15 K, 140000 kPa | 1145.6 | 1282.4 | 1402.4 | 1509 | 1601.4 | – | – | – | – | –
363.15 K, 10000 kPa | 972.2 | 1089.6 | 1196.4 | 1290.3 | 1374.4 | – | – | – | – | –
363.15 K, 20000 kPa | 996.8 | 1117.1 | 1225.6 | 1321.2 | 1406.2 | – | – | – | – | –
363.15 K, 30000 kPa | 1016.8 | 1139.3 | 1249.3 | 1346.4 | 1432.1 | – | – | – | – | –
363.15 K, 40000 kPa | 1033.8 | 1158.1 | 1269.5 | 1367.8 | 1454.3 | – | – | – | – | –
363.15 K, 50000 kPa | 1048.7 | 1174.8 | 1287.3 | 1386.6 | 1473.8 | – | – | – | – | –
363.15 K, 60000 kPa | 1062 | 1189.6 | 1303.1 | 1403.4 | 1491.2 | – | – | – | – | –
